The values below come from patent US20250353891A1 (MEDIMMUNE LIMITED, priority 2022, published 2025).

Starred links: 1 amine or outer side, 2 acyl side, 3 side chain; linkers in the order of their positions; H or OH if unused. Non-standard residues stand in square brackets, D forms with d. Residues, ends and D or L forms follow the SMILES beside them. Groups on a side chain read outwards from the residue. *: point of attachment. Dip = N[C@H](C(=O)O)C(c1ccccc1)c1ccccc1; γGlu = O=C(O)[C@H](CCC(=O)[*:2])N[*:1]; Stearoyl = CCCCCCCCCCCCCCCCCC(=O)*; αMeF = C[C@](N)(Cc1ccccc1)C(=O)O; PEG2 = NCCOCCOCCC(=O)O; Aib = CC(C)(N)C(=O)O

Series [1] in a line: Mouse acute food intake study. It counts as in vivo. The note with it: male C57Bl/6 mice, s.c., dose 10 nmol/kg, cumulative food intake at 24 hr vs vehicle. An outline of the steps:
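Peptide or vehicle went subcutaneously (5 mL/kg) to 6-8 h-fasted male C57Bl/6 mice shortly before the dark phase, with groups balanced on body weight and 24-hour intake. Cumulative food consumption was derived from 48 h of automated BioDaq monitoring with free food and water access.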

A short description of series [2]: Proteolytic resistance to FasSSIF/Pancreatin. The format is in vitro ADME. The note with it: simulated intestinal fluid. As to the method:
A fresh suspension of FasSSIF/P (Fasted-State Simulated Intestinal Fluid+USP Pancreatin®) was prepared according to that described by Galia, Nicolaides, Hörter, Löbenberg, Reppas and Dressman: Pharm. Res. 15 (1998) 698-705, and USP XL requirements. The resulting preparation was used immediately without storage.
Peptide for evaluation (1.0 mg) was dissolved in pre-warmed FasSSIF without Pancreatin® (200 μL). To this fresh FasSSIF/Pancreatin® (100 μL) was added to initiate potential proteolysis. Following momentary vortexing of the reaction tube the mixture was incubated at 37° C. in a thermostatic water bath for the duration of the experiment. 25 μL aliquot of the co-incubated peptide-enzyme mixture was periodically withdrawn (t=0, 5, 10 15 and 30 min) and quenched immediately by addition to a solution of 10% TFA in 1:1 water/acetonitrile (75 μL) to arrest proteolytic activity. Quenched samples were centrifuged (7800 RPM, 3 mins) to pellet solids and 10 μL aliquots of the supernatant solution were analyzed using analytical RP-HPLC as follows: Analytical RP-HPLC method: Agilent Polaris C8-A column (4.6×100 mm, 3 micron) eluted with a linear binary gradient of 10-90% MeCN (0.1% TFA v/v) in water (0.1% TFA v/v) over either 10 or 15 mins at 1.5 mL min^−1 at 40° C. with detection by UV absorption at 210 nm. Manual integration (AUC) allowed estimation of remaining intact peptide over the time course of the experiment.

Series [3] deals with human GLP-1 receptor (hGLP-1R) (Homo sapiens, UniProt P43220). Description: cAMP production (HTRF) in CHO cells expressing hGLP-1R. The following applies: for EC50: Table 6, peptides modified at position 17, cAMP in CHO hGLP-1R cells, geometric mean, read-out: hGLP-1R EC50; for % Relative Potency Ratio: Table 6, % GLP-1R activity relative to GLP-1 / % GlucR activity relative to glucagon. The format is cell-based. Also noted: expressed in transfected cells. In short, it runs like this: (§1)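 Potency values represent EC50 from 4-parameter logistic curves of HTRF % Delta F signal. Receptor-expressing CHO cells (hGCGR 2×10^5 cells/mL, hGLP-1R 1×10^5 cells/mL) were exposed for 30 min at room temperature before two-step cAMP detection.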
Chain of human GLP-1 receptor (hGLP-1R) (P43220 24-463): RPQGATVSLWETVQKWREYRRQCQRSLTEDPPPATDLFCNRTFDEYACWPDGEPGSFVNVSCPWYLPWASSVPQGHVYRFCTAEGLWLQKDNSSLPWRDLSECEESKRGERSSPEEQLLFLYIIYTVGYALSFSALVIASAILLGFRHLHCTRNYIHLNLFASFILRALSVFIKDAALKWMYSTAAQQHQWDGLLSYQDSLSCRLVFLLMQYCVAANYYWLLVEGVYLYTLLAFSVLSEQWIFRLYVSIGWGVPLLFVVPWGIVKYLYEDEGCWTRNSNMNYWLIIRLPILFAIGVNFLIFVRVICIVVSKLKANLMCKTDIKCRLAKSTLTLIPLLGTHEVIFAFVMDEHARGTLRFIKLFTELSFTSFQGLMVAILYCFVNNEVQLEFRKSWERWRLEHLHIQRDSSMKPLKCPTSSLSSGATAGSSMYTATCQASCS
For orientation: cAMP levels reflect the balance of adenylyl cyclase and phosphodiesterase activity.

Series [4] has as its target human glucagon receptor (hGCGR) (Homo sapiens, UniProt P47871). Description: cAMP production (HTRF) in CHO cells expressing hGCGR. It counts as cell-based. The following applies: Table 6, peptides modified at position 17; cAMP in CHO hGCGR cells; geometric mean; read-out: hGluc-R EC50. Further details: expressed in transfected cells. In short, it runs like this: as §1
Series [5] deals with GLP-1R knockout (KO) mice. Description: Glucose change in GLP-1R knockout mice. The note with it: GLP-1R KO mice, s.c., 120 min vs 0 min, somatostatin pretreatment (octreotide) 30 min prior to cpd. It counts as in vivo, mouse. As to the method:
(§2) They acclimated for a minimum of ˜1-2 weeks, and mice were sorted into groups (n=4-8/group) based on body weight. On day of study, mice were fasted briefly for 2 hrs prior to study start. In some studies, mice were pre-treated with octreotide (BaChem, 10 mg/kg) at 30 minutes prior to peptide injection. Glucose was measured via glucometer at various timepoints including-30 min (prior to octreotide when used in studies), 0 min (before peptide dose), 30, 60, 120, 180, 240, and 360 minutes. Since these studies are acute in nature, mice were re-used for multiple studies (no more than 3) and always allowed at least a minimum wash-out period of 1 week.

The next series concerns wildtype (WT) mice. Description: Glucose change in wildtype mice. It counts as in vivo, mouse. The note with it: s.c., 120 min vs 0 min, somatostatin pretreatment (octreotide) 30 min prior to cpd. As to the method: as §2, with “GLP-1R knockout (KO) and wildtype (WT) mice at 8-14 weeks of age were singly housed on standard chow diet (Envigo, 2918) and automatic water. They” for “They”

Chain of human glucagon receptor (hGCGR) (P47871 26-477): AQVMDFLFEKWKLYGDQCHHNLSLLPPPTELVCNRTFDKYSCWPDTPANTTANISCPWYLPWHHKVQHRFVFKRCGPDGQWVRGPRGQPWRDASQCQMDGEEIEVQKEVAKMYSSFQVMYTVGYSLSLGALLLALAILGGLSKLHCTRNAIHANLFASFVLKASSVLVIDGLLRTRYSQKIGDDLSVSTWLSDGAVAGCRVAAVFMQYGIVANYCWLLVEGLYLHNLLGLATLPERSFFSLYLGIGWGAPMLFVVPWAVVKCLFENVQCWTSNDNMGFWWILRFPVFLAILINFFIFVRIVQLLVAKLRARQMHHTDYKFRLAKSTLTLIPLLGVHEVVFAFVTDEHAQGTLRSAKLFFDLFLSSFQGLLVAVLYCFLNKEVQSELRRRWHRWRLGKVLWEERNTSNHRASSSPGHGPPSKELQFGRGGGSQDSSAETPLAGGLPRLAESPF

In general, share remaining refers to the share of the starting amount still present when the sample was taken. A lower share remaining goes with more turnover. For orientation: EC50 means the concentration giving half of the maximal effect. Take `CCCCCCCCCCCCCCCCCC(=O)N[C@@H](CCC(=O)N[C@@H](CCC(=O)NCCOCCOCCC(=O)NCCOCCOCCC(=O)NCCCC[C@H](NC(=O)[C@H](CO)NC(=O)[C@H](CC(=O)O)NC(=O)[C@H](CC(C)C)NC(=O)[C@@H](NC(=O)[C@H](CCCCN)NC(=O)[C@H](CO)NC(=O)[C@@H](NC(=O)[C@H](CC(=O)O)NC(=O)[C@H](CO)NC(=O)[C@@H](NC(=O)[C@](C)(Cc1ccccc1)NC(=O)[C@H](CO)NC(=O)CNC(=O)[C@H](CCC(N)=O)NC(=O)[C@H](CO)NC(=O)[C@@H](N)Cc1c[nH]cn1)[C@@H](C)O)C(C)C)C(c1ccccc1)c1ccccc1)C(=O)N[C@@H](C)C(=O)N[C@@H](C)C(=O)N[C@@H](CCC(N)=O)C(=O)N[C@@H](CC(=O)O)C(=O)N[C@@](C)(Cc1ccccc1)C(=O)N[C@H](C(=O)N[C@@H](CCC(=O)O)C(=O)NC(C)(C)C(=O)N[C@@H](CC(C)C)C(=O)N[C@@H](C)C(=O)N[C@@H](CC(N)=O)C(=O)N[C@H](C(N)=O)[C@@H](C)O)C(C)C)C(=O)O)C(=O)O` [Peptide 47] (H-HSQGS[αMeF]TSDVSK[Dip]LDSK([PEG2-PEG2-γGlu-γGlu-Stearoyl])AAQD[αMeF]VE[Aib]LANT-NH2; N-terminus assumed): the “24 hr % Vehicle Food Intake” value in series [1] is recorded as 51.4%. In series [2], this compound displayed a share remaining at 5 min, 3.3 mg/mL of 90%; a share remaining at 10 min, 3.3 mg/mL of 88%; a share remaining at 0.25 h, 3.3 mg/mL of 83%; an amount remaining at 0.5 h, 3.3 mg/mL of 75%. Also, in series [3], the EC50 was determined as 1.72 pM and the “% Relative Potency Ratio” value worked out at 2.7. Besides, the EC50 in series [4] is 2.38 pM.
For `CCCCCCCCCCCCCCCCCC(=O)N[C@@H](CCC(=O)N[C@@H](CCC(=O)NCCOCCOCCC(=O)NCCOCCOCCC(=O)NCCCC[C@H](NC(=O)[C@H](CO)NC(=O)[C@H](CC(=O)O)NC(=O)[C@H](CC(C)C)NC(=O)C(C)(C)NC(=O)[C@H](CCCCN)NC(=O)[C@H](CO)NC(=O)[C@@H](NC(=O)[C@H](CC(=O)O)NC(=O)[C@H](CO)NC(=O)[C@@H](NC(=O)[C@](C)(Cc1ccccc1)NC(=O)[C@H](CO)NC(=O)CNC(=O)[C@H](CCC(N)=O)NC(=O)[C@H](CO)NC(=O)[C@@H](N)Cc1c[nH]cn1)[C@@H](C)O)C(C)C)C(=O)N[C@@H](C)C(=O)N[C@@H](C)C(=O)N[C@@H](CCC(N)=O)C(=O)N[C@@H](CC(=O)O)C(=O)N[C@@](C)(Cc1ccccc1)C(=O)N[C@H](C(=O)N[C@@H](CCC(N)=O)C(=O)NC(C)(C)C(=O)N[C@H](C(=O)N[C@@H](C)C(=O)N[C@@H](CC(N)=O)C(N)=O)[C@@H](C)CC)C(C)C)C(=O)O)C(=O)O` [Peptide 97] (H-HSQGS[αMeF]TSDVSK[Aib]LDSK([PEG2-PEG2-γGlu-γGlu-Stearoyl])AAQD[αMeF]VQ[Aib]IAN-NH2; N-terminus assumed), the “GLP-1R KO % glucose change 120 min” value came out at 91.1% in series [5] (10 nmol/kg) and 150.8% in series [5] (30 nmol/kg). The “WT % glucose change 120 min” value in the series with wildtype (WT) mice (10 nmol/kg) is given as −41.9%; in the series with wildtype (WT) mice (30 nmol/kg), −14.7%. The figures for the EC50 in series [3] and in series [4] were 1.05 pM and 13 pM, respectively. The “% Relative Potency Ratio” value in series [3] is reported as 24.3.
With `CCCCCCCCCCCCCCCCCC(=O)N[C@@H](CCC(=O)N[C@@H](CCC(=O)NCCOCCOCCC(=O)NCCOCCOCCC(=O)NCCCC[C@H](NC(=O)[C@H](CO)NC(=O)[C@H](CC(=O)O)NC(=O)[C@H](CC(C)C)NC(=O)[C@@H](NC(=O)[C@H](CCCCN)NC(=O)[C@H](CO)NC(=O)[C@@H](NC(=O)[C@H](CC(=O)O)NC(=O)[C@H](CO)NC(=O)[C@@H](NC(=O)[C@](C)(Cc1ccccc1)NC(=O)[C@H](CO)NC(=O)CNC(=O)[C@H](CCC(N)=O)NC(=O)[C@H](CO)NC(=O)[C@@H](N)Cc1c[nH]cn1)[C@@H](C)O)C(C)C)C(c1ccccc1)c1ccccc1)C(=O)N[C@@H](C)C(=O)N[C@@H](C)C(=O)N[C@@H](CCC(N)=O)C(=O)N[C@@H](CC(=O)O)C(=O)N[C@@](C)(Cc1ccccc1)C(=O)N[C@H](C(=O)N[C@@H](CCC(=O)O)C(=O)NC(C)(C)C(=O)N[C@@H](CC(C)C)C(=O)N[C@@H](CC(C)C)C(=O)N[C@@H](CC(N)=O)C(=O)N[C@H](C(N)=O)[C@@H](C)O)C(C)C)C(=O)O)C(=O)O` [Peptide 51] (H-HSQGS[αMeF]TSDVSK[Dip]LDSK([PEG2-PEG2-γGlu-γGlu-Stearoyl])AAQD[αMeF]VE[Aib]LLNT-NH2; N-terminus assumed), in series [2], the amount remaining at 0.5 h, 3.3 mg/mL was 91%. For the same compound, the figures for the concentration for a half-maximal effect (EC50) in series [3] and in series [4] were 18.1 pM and 41.9 pM, respectively. Also, the “% Relative Potency Ratio” value in series [3] is given as 4.6.
For the compound `CCCCCCCCCCCCCCCCCC(=O)N[C@@H](CCC(=O)N[C@@H](CCC(=O)NCCOCCOCCC(=O)NCCOCCOCCC(=O)NCCCC[C@H](NC(=O)[C@H](CO)NC(=O)[C@H](CC(=O)O)NC(=O)[C@H](CC(C)C)NC(=O)[C@@H](NC(=O)[C@H](CCCCN)NC(=O)[C@H](CO)NC(=O)[C@@H](NC(=O)[C@H](CC(=O)O)NC(=O)[C@H](CO)NC(=O)[C@@H](NC(=O)[C@](C)(Cc1ccccc1)NC(=O)[C@H](CO)NC(=O)CNC(=O)[C@H](CCC(N)=O)NC(=O)[C@H](CO)NC(=O)[C@@H](N)Cc1c[nH]cn1)[C@@H](C)O)C(C)C)C(c1ccccc1)c1ccccc1)C(=O)N[C@@H](C)C(=O)N[C@@H](C)C(=O)N[C@@H](CCC(N)=O)C(=O)N[C@@H](CC(=O)O)C(=O)N[C@@](C)(Cc1ccccc1)C(=O)N[C@H](C(=O)N[C@@H](CCC(=O)O)C(=O)NC(C)(C)C(=O)N[C@H](C(=O)N[C@H](C(=O)N[C@@H](CC(N)=O)C(=O)N[C@H](C(N)=O)[C@@H](C)O)[C@@H](C)CC)[C@@H](C)CC)C(C)C)C(=O)O)C(=O)O` [Peptide 50] (H-HSQGS[αMeF]TSDVSK[Dip]LDSK([PEG2-PEG2-γGlu-γGlu-Stearoyl])AAQD[αMeF]VE[Aib]IINT-NH2), the “24 hr % Vehicle Food Intake” value in series [1] stood at 78.5%. Moreover, the amount remaining at 0.5 h, 3.3 mg/mL in series [2] was 98%. For the same compound, in series [3], the 50% effective concentration (EC50) was 4.9 pM and the “% Relative Potency Ratio” value was 3.5. In addition, in series [4], the EC50 was found to be 8.74 pM.
